Literature values in patent publication US20100062066A1, “Formulations of Tetrahydropyridine Antiplatelet Agents for Parenteral or Oral Administration” (Acusphere, Inc, priority 2006, published 2010).

System: platelet aggregation
Conditions: background statement on clopidogrel enantiomers

Compound	anti-aggregation activity
COC(=O)[C@H](c1ccccc1Cl)N1CCc2sccc2C1 (single isomer, unassigned; enantiomer 2) [S-enantiomer, 2-(2-chlorophenyl)-2-(2,4,5,6,7,7a-tetrahydrothieno[3,2-c]pyridine)-5-yl-acetic acetic acid methyl ester]	biologically active
COC(=O)C(c1ccccc1Cl)N1CCc2sccc2C1 (single isomer, unassigned) [R-enantiomer]	does not exhibit any anti-aggregation activity
